Consider seven compounds from patent US11648248B1 (King Abdulaziz University, priority 2022, dated 2023).

≈ marks a conversion by molar mass, not a printed value. Where two headings read alike, the source gives them in different places.

What all share (assay type): cell-based
Experiment [1] relates to Clostridium difficile (ATCC-BAA1870). In words: MIC broth microdilution, initial screening. The settings on record: Clostridioides difficile, ATCCBAA1870, 48 h. Here is the method:
(§1) The minimum inhibitory concentrations (MICs) of the tested compounds and control drugs (linezolid, vancomycin, gentamicin (antibiotics) and fluconazole and 5-fluorocytosine (5-FC) (antifungal drugs)) were determined using the broth microdilution method, according to guidelines outlined by the Clinical and Laboratory Standards Institute (CLSI, Clinical and Laboratory Standards Institute, Methods for antimicrobial susceptibility testing of anaerobic bacteria; approved standard, M11-A8. 8th ed., 2012; CLSI, Clinical and Laboratory Standards Institute. M27-A3 Reference Method for Broth Dilution Antifungal Susceptibility Testing of Yeasts; Approved Standard—Third Edition, Wayne, Pa., 2008) against clinically-relevant bacterial (methicillin-resistant Staphylococcus aureus (MRSA), Escherichia coli, and C. difficile strains) and fungal (Candida albicans) strains. S. aureus and E. coli were grown aerobically overnight on tryptone soy agar plates at 37° C. C. difficile was grown anaerobically on brain heart infusion supplemented agar at 37° C. for 48 hours. C. albicans was grown aerobically overnight on yeast peptone dextrose (YPD) agar plate at 35° C. Afterwards, a bacterial solution equivalent to 0.5 McFarland standard was prepared and diluted in cation-adjusted Mueller-Hinton broth (CAMHB) (for S. aureus and E. coli) to achieve a bacterial concentration of about 5×10^5 CFU/mL. C. difficile was diluted in brain heart infusion supplemented broth, supplemented with yeast extract, hemin and vitamin K to achieve a bacterial concentration of about 5×10^5 CFU/mL. C. albicans was diluted in Roswell Park Memorial Institute (RPMI 1640) medium with glutamine and without bicarbonate (GIBCO by Life Technologies, Green Island, N.Y., USA) which was buffered to pH 7.0 with 0.165 M of [3-(N-morpholino) propanesulfonic acid] (MOPS) (DOT Scientific Inc., Burton, Mich., USA) to achieve a fungal concentration of about 1.5×10^3 CFU/mL. Compounds and control drugs were added in the first row of the 96-well plates and serially diluted with the corresponding media containing bacteria. Plates were then incubated aerobically at 37° C. for 18-20 hours (for S. aureus and E. coli). C. difficile was incubated anaerobically at 37° C. for 48 hours. C. albicans was incubated aerobically at 37° C. for 24 hours.
(§2) The minimum inhibitory concentrations (MICs) of the tested compounds and control drugs; linezolid, vancomycin, gentamicin (antibiotics) and fluconazole and 5-fluorocytosine (5-FC) (antifungal drugs) were determined using the broth microdilution method, according to guidelines outlined by the Clinical and Laboratory Standards Institute (CLSI)^1, 2, 3 against clinically-relevant bacterial (methicillin-resistant Staphylococcus aureus (MRSA), Escherichia coli and Clostridium difficile strains) and fungal (Candida albicans) strain. S. aureus and E. coli were grown aerobically overnight on tryptone soy agar plates at 37° C. C. difficile was grown anaerobically on brain heart infusion supplemented agar at 37° C. for 48 hours. C. albicans was grown aerobically overnight on yeast peptone dextrose (YPD) agar plate at 35° C. Afterwards, a bacterial solution equivalent to 0.5 McFarland standard was prepared and diluted in cation-adjusted Mueller-Hinton broth (CAMHB) (for S. aureus and E. coli) to achieve a bacterial concentration of about 5×10^5 CFU/mL. C. difficile was diluted in brain heart infusion supplemented broth, supplemented with yeast extract, hemin and vitamin K to achieve a bacterial concentration of about 5×10^5 CFU/mL. C. albicans was diluted in Roswell Park Memorial Institute (RPMI 1640) medium with glutamine and without bicarbonate (GIBCO by Life Technologies, Green Island, N.Y., USA) which was buffered to pH 7.0 with 0.165 M of [3-(N-morpholino) propanesulfonic acid]
On the technique in general: Broth dilution looks for growth in wells or tubes with falling amounts of substance.

Experiment [2] has as its system C. albicans (ATCC 64124). In words: MIC broth microdilution, initial screening. Conditions: Candida albicans, read-out: minimum inhibitory concentration (MIC) C. albicans (ATCC 64124). Here is the method:
as §1, §2

Experiment [3] deals with Escherichia coli JW55031 (TolC mutant). The experiment is described as follows: MIC broth microdilution, initial screening. Conditions: Escherichia coli, read-out: minimum inhibitory concentration (MIC) E. coli (TolC mutant), E. coli JW55031, 18-20 hours. Here is the method: as §1, §2
Experiment [4] relates to multi-drug resistant staphylococcal strains. The experiment is described as follows: MIC against panel of staphylococcal strains. The settings on record: Staphylococcus; range over the staphylococcal panel; read-out: MIC values, tested staphylococcal strains.
Excerpt: (§3) Based upon the initial results obtained, the active compounds were further screened against additional clinical isolates of methicillin-sensitive S. aureus (MSSA), methicillin-resistant S. aureus (MRSA), vancomycin-resistant S. aureus (VRSA), Staphylococcus epidermidis, vancomycin-resistant Enterococcus faecium (VRE), vancomycin-resistant Enterococcus faecalis (VRE) and Streptococcus pneumoniae, as presented in Table 2. Additionally, we examined whether the compounds were bacteriostatic (inhibit bacteria from growing) or bactericidal (kill bacteria) by determining the minimum bactericidal concentration (MBC). The MBC was determined by plating 5 μL from each well where no growth was present (in the MIC plates) onto tryptic soya agar plates and incubating plates at 37° C. for 24 hours. The MBC was categorized as the lowest concentration that generated a 99.9% reduction in bacterial colony-forming units (Table 3).
as §2, with “acid] (MOPS) (dot scientific inc., Burton, Mich., USA) to achieve a fungal concentration of about 1.5×10^3 CFU/mL. Compounds and control drugs were added in the first row of the 96-well plates and serially diluted with the corresponding media containing bacteria/fungi. Plates were then, incubated aerobically at 37° C. for 18-20 hours (for S. aureus and E. coli). […]” for “acid]”

In experiment [5] the test system is Gram-positive bacteria. The experiment is described as follows: Bacteriostatic or bactericidal by MBC versus MIC. The settings on record: MBC less than or at least three-fold the MIC.
Excerpt: as §3

Where [6] appears, read: read-out: minimum inhibitory concentration (MIC) C. difficile (ATCC-BAA1870), anaerobic, 48 hours.

Turning to `CN[C@H](CC(C)C)C(=O)N[C@H]1C(=O)N[C@@H](CC(N)=O)C(=O)N[C@H]2C(=O)N[C@H]3C(=O)N[C@H](C(=O)N[C@H](C(=O)O)c4cc(O)cc(O)c4-c4cc3ccc4O)[C@H](O)c3ccc(c(Cl)c3)Oc3cc2cc(c3O[C@@H]2O[C@H](CO)[C@@H](O)[C@H](O)[C@H]2O[C@H]2C[C@](C)(N)[C@H](O)[C@H](C)O2)Oc2ccc(cc2Cl)[C@H]1O` [Vancomycin, reference compound], the MIC in experiment [1] (read-out: minimum inhibitory concentration (MIC) C. difficile (ATCC-BAA1870)) came out at 1 µg/mL (≈ 0.69 µM).

`CNC(=O)c1cc(Oc2ccc(NC(=O)Nc3ccc(Cl)c(C(F)(F)F)c3)cc2)ccn1` [Sorafenib, reference compound]: the MIC in experiment [2] (ATCC64124, RPMI 1640, 24 hours) was > 128 µg/mL; in experiment [1] (anaerobic, 48 hours, read-out: minimum inhibitory concentration (MIC) C. difficile (ATCC-BAA1870)) it was 1 µg/mL (≈ 2.15 µM); in experiment [3], 1 µg/mL (≈ 2.15 µM).

As to `O=C(Nc1ccc(-c2ccc(=O)[nH]n2)cc1)Nc1ccc(Cl)c(Cl)c1` [MY21, 1-(3,4-dichlorophenyl)-3-(4-(6-oxo-1,6-dihydropyridazin-3-yl)phenyl)urea], the MIC in experiment [1] (setting [6]) and in experiment [4] was 0.5 to 1 µg/mL (≈ 1.33 to 2.67 µM) in each case. For the same compound, the “bacteriostatic or bactericidal (MBC compared with MIC)” value in experiment [5] is reported as “bactericidal”.

Take `CC(=O)NC[C@H]1CN(c2ccc(N3CCOCC3)c(F)c2)C(=O)O1` [Linezolid, reference compound]: the MIC in experiment [3] came to 8 µg/mL (≈ 23.7 µM).

As to `O=C(Nc1ccc(Oc2ccc(=O)[nH]n2)cc1)Nc1ccc(Cl)c(C(F)(F)F)c1` [MY31, 1-(4-chloro-3-(trifluoromethyl)phenyl)-3-(4-((6-oxo-1,6-dihydropyridazin-3-yl)oxy)phenyl)urea], the MIC in experiment [2] (ATCC64124, 24 h) is > 128 µg/mL; in experiment [1] (setting [6]) it was 0.5 to 1 µg/mL (≈ 1.18 to 2.35 µM); in experiment [3] it was 0.5 µg/mL (≈ 1.18 µM); in experiment [4], 0.5 to 1 µg/mL (≈ 1.18 to 2.35 µM). In addition, in experiment [5], the “bacteriostatic or bactericidal (MBC compared with MIC)” value is “bacteriostatic”.

Take `O=C(Nc1ccc(Oc2ccc(=O)[nH]n2)cc1)Nc1ccc(Cl)c(Cl)c1` [MY24, 1-(3,4-dichlorophenyl)-3-(4-((6-oxo-1,6-dihydropyridazin-3-yl)oxy)phenyl)urea]: the MIC in experiment [2] (ATCC64124, 24 h) is > 128 µg/mL; in experiment [1] (setting [6]), 0.5 to 1 µg/mL (≈ 1.28 to 2.56 µM); in experiment [3] it was 1 µg/mL (≈ 2.56 µM); in experiment [4] it was 0.5 to 1 µg/mL (≈ 1.28 to 2.56 µM). The “bacteriostatic or bactericidal (MBC compared with MIC)” value in experiment [5] is “bacteriostatic”.

`O=C(Nc1cccc(Nc2ccc(Cl)nn2)c1)Nc1ccc(Cl)c(Cl)c1` [MY14, 1-(3-((6-chloropyridazin-3-yl)amino)phenyl)-3-(3,4-dichlorophenyl)urea]: the MIC in experiment [2] (ATCC64124, 24 h) is > 128 µg/mL; in experiment [3], 2 µg/mL (≈ 4.89 µM); in experiment [4], 2 to 8 µg/mL (≈ 4.89 to 19.6 µM).
